Data published in patent US8697742B2, “BCRP/ABCG2 inhibitor” (Kabushiki Kaisha Yakult Honsha, priority 2005, dated 2014).
In brackets after ≈: the same amount, converted by molar mass. Counter-ions that a name gives are not always drawn. Like-named read-outs stand apart in the source and are kept apart here.

Assays:
[1] = tested on: A549/SN-38-4 cells; assay: Effect of overcoming SN-38 resistance of BCRP-expressing A549/SN-38-4 cells; type: cell-based, human; conditions: concentration for 50% reduction of relative SN-38 resistance value (IC50 A549/SN-38-4 / IC50 A549), 48 hours culture with SN-38; for EC50: Homo sapiens, A549, 48 h, read-out: Effect of overcoming resistance EC50
Experimental: The human lung cancer A549 cells or the A549/SN-38-4 cells were suspended in a Ham's F-12 medium containing 10% FBS, 100 U/mL of penicillin, and 100 μg/mL of streptomycin (10% FBS/Ham's F-12), and the resultant suspension was inoculated into a 96-well microplate (2×10^3 cells/50 μL/well), followed by culturing at 5% CO2 and 37° C. overnight. […] After completion of culturing, the number of viable cells was counted by use of a viable cell counting reagent [TetraColor ONE (trademark), product of Seikagaku Corporation] according to the attached instruction manual. […] The greater the relative resistance value, the higher the level of acquired resistance.

[2] = tested on: HCT116/BCRP cells; assay: Effect of overcoming anticancer agent resistance in vivo, HCT116/BCRP tumour in nude mice; design: species or system human; conditions: day 21; for Tumor weight Mean ± S.D.: BALB/c nude mice; for Tumor growth inhibition ratio IR: vs control group
Source text: A solvent was solely administered to a control group. On the day 21 from the start of administration, a tumor was extirpated from each mice and weighed, and the tumor growth inhibition ratio IR (%) was derived from the following equation: Tumor growth inhibition ratio IR(%)=(1−average tumor weight of each administration group/average tumor weight of control group)×100.

[3] = tested on: K562/MDR cells; assay: Effect on paclitaxel (multidrug) resistance of human MDR1 gene-transduced K562 cells; type: cell-based; conditions: for EC50: Homo sapiens, read-out: Effect of overcoming resistance EC50
Source text: After completion of culturing, the number of viable cells was counted by use of TetraColor ONE according to the manufacture's instruction manual.

[4] = tested on: P388/BCRP cells; assay: Effect of overcoming SN-38 resistance of human BCRP gene-transduced P388 cells; type: cell-based, mouse; conditions: with SN-38, 48 hours, FIG. 1
Experimental: (§1) Mouse leukemia P388 cells or human BCRP gene-transduced P388 cells (P388/BCRP cells) (see JP-A-2003-063989) were suspended in 10% FBS/RPMI1640 containing 2-mercaptethanol (50 μM), and the resultant suspension was added to a 96-well microplate (1×10^4 cells/50 μL/well). Thereafter, a solution of each of Compounds 1, 14, 21, 31, 39, and 41 of the present invention and SN-38 in 100 FBS/RPNI1640 (25 μL) was added to each of the wells, followed by culturing at 5% CO2 and 37° C. for 48 hours. After completion of culturing, the number of viable cells was counted by use of TetraColor ONE according to the manufacture's instruction manual.

[5] = tested on: P388 cells; assay: Sensitivity of parental P388 cells to SN-38; type: cell-based, mouse; conditions: with SN-38, 48 hours, FIG. 1
Experimental: as §1

[6] = compound 12.5 mg/kg/day + CPT-11 10 mg/kg/day i.v. once a day for seven days
[7] = compound 25 mg/kg/day + CPT-11 10 mg/kg/day i.v. once a day for seven days
[8] = concentration for 50% reduction of relative paclitaxel resistance value, K562/MDR vs K562, 72 hours
[9] = compound 6.3 mg/kg/day + CPT-11 10 mg/kg/day i.v. once a day for seven days

Row | EC50 [1] | EC50 [3, 8] | Compound | Tumor weight Mean ± S.D. [2, 6] | Tumor growth inhibition ratio IR [2, 6] | also measured
1 | – | – | COc1ccc(/C(C#N)=C/c2ccc(N3CCN(C)CC3)s2)cc1OC [Compound 13, (Z)-2-(3,4-dimethoxy-phenyl)-3-[5-(4-methyl-piperazin-1-yl)-thiophen-2-yl]-acrylonitrile hydrochloride] | 0.87 ± 0.18 g | 31.7% | Effect of overcoming resistance EC50 ([1]; hydrochloride): 0.033 µg/mL; Tumor weight Mean ± S.D. [2, 7]: 0.83 ± 0.08 g; Tumor growth inhibition ratio IR [2, 7]: 35.0%
2 | – | – | COc1ccc(/C(C#N)=C/c2ccc(N3CCN(CCO)CC3)s2)cc1OC [Compound 14, (Z)-2-(3,4-dimethoxy-phenyl)-3-{5-[4-(2-hydroxy-ethyl)-piperazin-1-yl]-thiophen-2-yl}-acrylonitrile hydrochloride] | 0.79 ± 0.14 g | 37.7% | Effect of overcoming resistance EC50 ([1]; hydrochloride): 0.087 µg/mL; EC50 ([3]; K562, 72 h): > 5 µg/mL; Tumor weight Mean ± S.D. [2, 7]: 0.70 ± 0.10 g; Tumor growth inhibition ratio IR [2, 7]: 45.1%
3 | 0.02 µg/mL (≈ 0.0531 µM) | > 5 µg/mL | COc1ccc(/C(C#N)=C/c2ccc(-c3cccc([N+](=O)[O-])c3)o2)cc1OC [Compound 21, (Z)-2-(3,4-dimethoxy-phenyl)-3-[5-(3-nitro-phenyl)-furan-2-yl]-acrylonitrile] | – | – | Effect of overcoming the SN-38 resistance of the P388/BCRP cells [4]: potent effect of overcoming the SN-38 resistance; Effect on sensitivity of the P388 cells to SN-38 [5]: did not affect the sensitivity
4 | – | – | COc1ccc(/C(C#N)=C/c2ccc(-c3cccc(N)c3)o2)cc1OC [Compound 23, (Z)-3-[5-(3-amino-phenyl)-furan-2-yl]-2-(3,4-dimethoxy-phenyl)-acrylonitrile hydrochloride] | 1.21 ± 0.17 g | 12.3% | Effect of overcoming resistance EC50 ([1]; hydrochloride): 0.058 µg/mL; Tumor weight Mean ± S.D. [2, 7]: 0.71 ± 0.11 g; Tumor growth inhibition ratio IR [2, 7]: 48.8%
5 | – | > 5 µg/mL | COc1ccc(/C(C#N)=C/c2ccc(N3CCN(C)CC3)o2)cc1OC [Compound 27, (Z)-2-(3,4-dimethoxy-phenyl)-3-[5-(4-methyl-piperazin-1-yl)-furan-2-yl]-acrylonitrile] | – | – | Effect of overcoming resistance EC50 [1]: 0.2 µg/mL
6 | 0.12 µg/mL (≈ 0.313 µM) | > 5 µg/mL | COc1ccc(/C(C#N)=C/c2ccc(N3CCN(CCO)CC3)o2)cc1OC [Compound 28, (Z)-2-(3,4-dimethoxy-phenyl)-3-{5-[4-(2-hydroxy-ethyl)-piperazin-1-yl]-furan-2-yl}-acrylonitrile] | – | – | –
7 | 0.02 µg/mL (≈ 0.0751 µM) | > 5 µg/mL | COc1ccc(/C(C#N)=C/c2ccncc2)cc1OC [Compound 30, (Z)-2-(3,4-dimethoxy-phenyl)-3-pyridin-4-yl-acrylonitrile] | – | – | –
8 | – | – | COc1ccc(/C(C#N)=C/c2ccncc2)cc1OC [Compound 31, (Z)-2-(3,4-dimethoxy-phenyl)-3-pyridin-4-yl-acrylonitrile hydrochloride] | 0.74 ± 0.06 g | 46.6% | Effect of overcoming resistance EC50 ([1]; hydrochloride): 0.037 µg/mL; Tumor weight Mean ± S.D. [2, 7]: 0.67 ± 0.18 g; Tumor growth inhibition ratio IR [2, 7]: 51.1%
9 | 0.028 µg/mL | > 5 µg/mL | COc1ccc(/C(C#N)=C/c2ccncc2)cc1OC.CS(=O)(=O)O [Compound 32, (Z)-2-(3,4-dimethoxy-phenyl)-3-pyridin-4-yl-acrylonitrile methanesulfonate] | 0.52 ± 0.11 g | 59.0% | Tumor weight Mean ± S.D. [2, 9]: 0.75 ± 0.24 g; Tumor growth inhibition ratio IR [2, 9]: 40.8%
10 | – | > 5 µg/mL | COc1ccc(/C(C#N)=C/c2cccnc2)cc1OC [Compound 34, (Z)-2-(3,4-dimethoxy-phenyl)-3-pyridin-3-yl-acrylonitrile] | – | – | Effect of overcoming resistance EC50 [1]: 0.058 µg/mL
11 | 0.06 µg/mL (≈ 0.225 µM) | > 5 µg/mL | COc1ccc(/C(C#N)=C/c2ccccn2)cc1OC [Compound 38, (Z)-2-(3,4-dimethoxy-phenyl)-3-pyridin-2-yl-acrylonitrile] | – | – | –
12 | 0.075 µg/mL | > 5 µg/mL | COc1ccc(/C(C#N)=C/c2ccc[nH]2)cc1OC.Cl [Compound 40, (Z)-2-(3,4-dimethoxy-phenyl)-3-(1H-pyrrol-2-yl)-acrylonitrile hydrochloride] | – | – | –
13 | 0.22 µg/mL (≈ 0.562 µM) | > 5 µg/mL | COc1ccc(/C(C#N)=C/c2cnc(SC)n2Cc2ccccc2)cc1OC [Compound 42, (Z)-3-(3-benzyl-2-methylsulfanyl-3H-imidazol-4-yl)-2-(3,4-dimethoxy-phenyl)-acrylonitrile] | – | – | –
14 | 0.16 µg/mL (≈ 0.441 µM) | > 5 µg/mL | COc1ccc(/C(C#N)=C/c2sc(-c3ccccc3)nc2C)cc1OC [Compound 43, (Z)-2-(3,4-dimethoxy-phenyl)-3-(4-methyl-2-phenyl-thiazol-5-yl)-acrylonitrile] | – | – | –
15 | 0.056 µg/mL (≈ 0.21 µM) | > 5 µg/mL | COc1ccc(/C=C(\C#N)c2cccnc2)cc1OC [Compound 44, (Z)-3-(3,4-dimethoxy-phenyl)-2-pyridin-3-yl-acrylonitrile] | – | – | –
16 | 0.05 µg/mL (≈ 0.188 µM) | > 5 µg/mL | COc1ccc(/C=C(\C#N)c2ccccn2)cc1OC [Compound 45, (Z)-3-(3,4-dimethoxy-phenyl)-2-pyridin-2-yl-acrylonitrile] | – | – | –
17 | – | – | COc1ccc(/C=C(\C#N)c2cccnc2)cc1OC [Compound 46, (Z)-3-(3,4-dimethoxy-phenyl)-2-pyridin-3-yl-acrylonitrile hydrochloride] | 0.79 ± 0.21 g | 37.7% | Effect of overcoming resistance EC50 ([1]; hydrochloride): 0.1 µg/mL; Tumor weight Mean ± S.D. [2, 7]: 0.67 ± 0.07 g; Tumor growth inhibition ratio IR [2, 7]: 47.7%
18 | 0.037 µg/mL (≈ 0.136 µM) | > 5 µg/mL | COc1ccc(/C=C(\C#N)c2ccsc2)cc1OC [Compound 56, (Z)-3-(3,4-dimethoxy-phenyl)-2-thiophen-3-yl-acrylonitrile] | – | – | –
19 | – | – | (Z)-2-(3,4-dimethoxy-phenyl)-3-pyridin-4-yl-acrylonitrile N-oxide [Compound 33] | – | – | Effect of overcoming resistance EC50 [1]: 0.52 µg/mL; Effect of overcoming resistance EC50 [3, 8]: >5 µg/mL

Row | Compound | EC50 [1] | EC50 [3, 8] | Tumor weight Mean ± S.D. [2, 6] | Tumor growth inhibition ratio IR [2, 6] | also measured
20 | COc1ccc(/C(C#N)=C/c2cnc[nH]2)cc1OC [Compound 41, (Z)-2-(3,4-dimethoxy-phenyl)-3-(3H-imidazol-4-yl)-acrylonitrile] | 0.28 µg/mL (≈ 1.1 µM) | > 5 µg/mL | – | – | Effect of overcoming the SN-38 resistance of the P388/BCRP cells [4]: potent effect of overcoming the SN-38 resistance; Effect on sensitivity of the P388 cells to SN-38 [5]: did not affect the sensitivity
